Values belong to the compound of their own block, whether it stands above or below them.
How the values were obtained:
Assay in all cases: radiometric filter-binding kinase assay
[1] = biological target: PRKCZ (human) (UniProt Q05513)
[2] = biological target: MAPKAPK5 (human) (UniProt Q8IW41)
[3] = biological target: MAP2K2 (human) (UniProt P36507)
[4] = biological target: ERBB4 (human) (UniProt Q15303)
[5] = biological target: MAPK3 (human) (UniProt P27361)
[6] = biological target: STK3 (human) (UniProt Q13188)
[7] = biological target: IGF1R (human) (UniProt P08069)
[8] = biological target: PIM3 (human) (UniProt Q86V86)
[9] = biological target: DYRK1A (human) (UniProt Q13627)
[10] = biological target: MARK1 (human) (UniProt Q9P0L2)
[11] = biological target: BRSK2 (human) (UniProt Q8IWQ3)
[12] = biological target: HIPK3 (human) (UniProt Q9H422)
[13] = biological target: MAPK13 (human) (UniProt O15264)
[14] = biological target: BRSK1 (human) (UniProt Q8TDC3)
[15] = biological target: MAP3K5 (human) (UniProt Q99683)
[16] = biological target: SYK (human) (UniProt P43405); conditions: compound 10.0 µM
[17] = biological target: MKNK1 (human) (UniProt Q9BUB5)
[18] = biological target: GSK3B (human) (UniProt P49841)
[19] = biological target: EPHB4 (human) (UniProt P54760)
[20] = biological target: IKBKE (human) (UniProt Q14164)
[21] = biological target: CAMKK2 (human) (UniProt Q96RR4)
[22] = biological target: MAPK12 (human) (UniProt P53778)
[23] = biological target: PRKACA (human) (UniProt P17612)
[24] = biological target: EEF2K (human) (UniProt O00418)
[25] = biological target: PIM2 (human) (UniProt Q9P1W9)
[26] = biological target: PIM1 (human) (UniProt P11309)
[27] = tested on: SGK1 (human), O00141 [S422D]
[28] = biological target: PHKG1 (human) (UniProt Q16816)
[29] = biological target: MAPK9 (human) (UniProt P45984)
[30] = tested on: PRKAA1 or PRKAA2 (rat); conditions: accession and sequence are those of the human protein
[31] = biological target: PAK7 (human) (UniProt Q9P286)
[32] = biological target: DAPK1 (human) (UniProt P53355)
[33] = biological target: MELK (human) (UniProt Q14680)
[34] = biological target: MAP2K6 (human) (UniProt P52564)
[35] = biological target: MAPKAPK2 (human) (UniProt P49137)
[36] = biological target: FGFR1 (human) (UniProt P11362); conditions: compound 10.0 µM

MAPKAPK5 (human), sequence (Q8IW41 whole entry, looked up): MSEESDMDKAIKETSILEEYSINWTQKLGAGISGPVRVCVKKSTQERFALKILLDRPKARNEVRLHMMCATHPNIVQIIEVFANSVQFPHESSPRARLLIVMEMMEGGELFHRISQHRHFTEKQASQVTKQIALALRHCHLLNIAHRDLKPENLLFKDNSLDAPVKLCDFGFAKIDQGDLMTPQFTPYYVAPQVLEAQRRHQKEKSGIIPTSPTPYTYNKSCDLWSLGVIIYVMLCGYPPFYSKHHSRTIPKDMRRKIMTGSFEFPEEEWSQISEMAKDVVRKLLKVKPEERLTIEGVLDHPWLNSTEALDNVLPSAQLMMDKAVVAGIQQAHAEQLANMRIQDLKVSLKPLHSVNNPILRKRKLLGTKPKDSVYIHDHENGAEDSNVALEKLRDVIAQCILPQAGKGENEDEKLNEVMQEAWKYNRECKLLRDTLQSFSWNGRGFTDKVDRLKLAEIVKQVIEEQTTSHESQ
PHKG1 (human), sequence (Q16816 whole entry, looked up): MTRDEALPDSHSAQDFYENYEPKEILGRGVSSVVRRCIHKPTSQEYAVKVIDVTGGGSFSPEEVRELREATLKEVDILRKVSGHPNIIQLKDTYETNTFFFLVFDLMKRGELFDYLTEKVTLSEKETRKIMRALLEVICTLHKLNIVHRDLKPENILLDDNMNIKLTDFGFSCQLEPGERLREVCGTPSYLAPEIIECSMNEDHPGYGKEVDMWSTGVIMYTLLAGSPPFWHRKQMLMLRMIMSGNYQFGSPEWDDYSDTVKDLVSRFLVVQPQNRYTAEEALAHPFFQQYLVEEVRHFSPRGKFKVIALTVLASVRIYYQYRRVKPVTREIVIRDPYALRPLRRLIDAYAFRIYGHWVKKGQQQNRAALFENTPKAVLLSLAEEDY
DAPK1 (human), sequence (P53355 whole entry, looked up): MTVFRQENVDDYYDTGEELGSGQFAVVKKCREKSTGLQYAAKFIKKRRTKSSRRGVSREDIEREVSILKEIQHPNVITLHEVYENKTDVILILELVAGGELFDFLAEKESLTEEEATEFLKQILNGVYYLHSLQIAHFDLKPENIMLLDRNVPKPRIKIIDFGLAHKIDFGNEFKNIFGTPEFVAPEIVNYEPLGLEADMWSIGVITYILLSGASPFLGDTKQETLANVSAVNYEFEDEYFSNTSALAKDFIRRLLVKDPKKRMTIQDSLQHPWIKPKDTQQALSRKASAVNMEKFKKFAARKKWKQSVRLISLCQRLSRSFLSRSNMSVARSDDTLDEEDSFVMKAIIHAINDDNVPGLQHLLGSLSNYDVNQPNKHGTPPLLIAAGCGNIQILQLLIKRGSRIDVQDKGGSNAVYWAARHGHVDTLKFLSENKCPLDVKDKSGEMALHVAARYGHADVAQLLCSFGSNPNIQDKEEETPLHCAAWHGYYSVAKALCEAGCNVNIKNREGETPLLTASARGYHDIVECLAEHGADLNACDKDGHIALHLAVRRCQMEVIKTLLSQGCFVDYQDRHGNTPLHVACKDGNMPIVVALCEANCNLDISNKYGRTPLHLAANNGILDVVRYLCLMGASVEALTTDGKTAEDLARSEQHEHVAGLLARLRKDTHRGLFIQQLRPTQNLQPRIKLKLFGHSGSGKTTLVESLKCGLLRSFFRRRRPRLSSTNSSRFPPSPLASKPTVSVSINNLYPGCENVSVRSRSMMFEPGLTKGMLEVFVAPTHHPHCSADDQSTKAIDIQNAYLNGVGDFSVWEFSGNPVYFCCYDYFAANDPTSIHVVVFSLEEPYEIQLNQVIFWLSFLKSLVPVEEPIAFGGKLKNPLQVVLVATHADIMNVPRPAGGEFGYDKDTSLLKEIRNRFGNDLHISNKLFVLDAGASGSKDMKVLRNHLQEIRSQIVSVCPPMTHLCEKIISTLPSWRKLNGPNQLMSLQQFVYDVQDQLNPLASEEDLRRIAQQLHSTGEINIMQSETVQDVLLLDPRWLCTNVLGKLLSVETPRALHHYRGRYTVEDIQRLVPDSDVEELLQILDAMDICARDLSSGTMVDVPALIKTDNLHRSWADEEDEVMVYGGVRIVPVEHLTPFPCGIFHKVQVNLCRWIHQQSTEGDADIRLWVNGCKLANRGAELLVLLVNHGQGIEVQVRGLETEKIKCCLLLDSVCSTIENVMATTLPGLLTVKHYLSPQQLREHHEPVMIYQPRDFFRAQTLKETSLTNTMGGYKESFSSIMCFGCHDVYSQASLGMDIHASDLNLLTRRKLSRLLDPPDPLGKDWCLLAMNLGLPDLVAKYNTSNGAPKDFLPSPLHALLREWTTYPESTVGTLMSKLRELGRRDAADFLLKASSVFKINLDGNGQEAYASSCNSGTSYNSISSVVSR
SGK1 (human), O00141 [S422D], sequence (O00141 whole entry S422D, looked up): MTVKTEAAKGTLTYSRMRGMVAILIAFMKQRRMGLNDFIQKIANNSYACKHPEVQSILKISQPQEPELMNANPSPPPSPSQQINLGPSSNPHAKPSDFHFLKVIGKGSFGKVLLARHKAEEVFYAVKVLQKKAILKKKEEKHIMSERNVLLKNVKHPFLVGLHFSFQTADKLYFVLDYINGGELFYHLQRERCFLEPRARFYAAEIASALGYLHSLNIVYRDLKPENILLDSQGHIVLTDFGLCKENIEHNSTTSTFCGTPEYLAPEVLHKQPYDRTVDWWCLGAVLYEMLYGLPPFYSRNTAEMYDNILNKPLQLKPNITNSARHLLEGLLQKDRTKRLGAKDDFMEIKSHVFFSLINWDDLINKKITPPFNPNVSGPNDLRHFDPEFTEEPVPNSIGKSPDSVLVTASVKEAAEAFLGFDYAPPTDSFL
PIM2 (human), sequence (Q9P1W9 whole entry, looked up): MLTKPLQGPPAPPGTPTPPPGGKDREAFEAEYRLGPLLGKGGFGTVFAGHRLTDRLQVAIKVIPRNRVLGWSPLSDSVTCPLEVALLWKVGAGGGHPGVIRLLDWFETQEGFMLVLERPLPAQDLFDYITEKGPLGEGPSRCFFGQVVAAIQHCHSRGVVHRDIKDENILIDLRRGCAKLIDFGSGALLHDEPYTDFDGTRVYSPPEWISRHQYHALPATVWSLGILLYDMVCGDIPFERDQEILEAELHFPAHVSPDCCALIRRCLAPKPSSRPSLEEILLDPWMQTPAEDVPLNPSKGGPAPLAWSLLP
BRSK2 (human), sequence (Q8IWQ3 whole entry, looked up): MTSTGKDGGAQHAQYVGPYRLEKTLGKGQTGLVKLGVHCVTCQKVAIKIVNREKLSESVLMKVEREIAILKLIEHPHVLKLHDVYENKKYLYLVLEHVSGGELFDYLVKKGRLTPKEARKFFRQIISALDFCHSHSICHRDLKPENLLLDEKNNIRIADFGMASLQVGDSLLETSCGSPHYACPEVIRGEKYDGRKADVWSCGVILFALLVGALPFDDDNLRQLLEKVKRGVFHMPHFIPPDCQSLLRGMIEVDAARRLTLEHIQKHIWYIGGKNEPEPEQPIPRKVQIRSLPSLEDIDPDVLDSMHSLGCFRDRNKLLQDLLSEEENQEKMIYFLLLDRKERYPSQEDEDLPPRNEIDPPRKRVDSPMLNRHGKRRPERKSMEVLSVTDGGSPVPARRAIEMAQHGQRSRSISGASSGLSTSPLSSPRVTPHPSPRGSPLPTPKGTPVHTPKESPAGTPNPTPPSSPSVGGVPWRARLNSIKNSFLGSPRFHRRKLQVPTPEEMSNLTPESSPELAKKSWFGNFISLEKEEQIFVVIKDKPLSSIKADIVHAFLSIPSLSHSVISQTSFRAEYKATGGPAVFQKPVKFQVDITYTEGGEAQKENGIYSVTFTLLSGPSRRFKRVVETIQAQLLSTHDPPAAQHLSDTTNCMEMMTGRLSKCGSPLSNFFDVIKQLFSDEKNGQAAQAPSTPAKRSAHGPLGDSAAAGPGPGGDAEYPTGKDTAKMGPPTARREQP
STK3 (human), sequence (Q13188 whole entry, looked up): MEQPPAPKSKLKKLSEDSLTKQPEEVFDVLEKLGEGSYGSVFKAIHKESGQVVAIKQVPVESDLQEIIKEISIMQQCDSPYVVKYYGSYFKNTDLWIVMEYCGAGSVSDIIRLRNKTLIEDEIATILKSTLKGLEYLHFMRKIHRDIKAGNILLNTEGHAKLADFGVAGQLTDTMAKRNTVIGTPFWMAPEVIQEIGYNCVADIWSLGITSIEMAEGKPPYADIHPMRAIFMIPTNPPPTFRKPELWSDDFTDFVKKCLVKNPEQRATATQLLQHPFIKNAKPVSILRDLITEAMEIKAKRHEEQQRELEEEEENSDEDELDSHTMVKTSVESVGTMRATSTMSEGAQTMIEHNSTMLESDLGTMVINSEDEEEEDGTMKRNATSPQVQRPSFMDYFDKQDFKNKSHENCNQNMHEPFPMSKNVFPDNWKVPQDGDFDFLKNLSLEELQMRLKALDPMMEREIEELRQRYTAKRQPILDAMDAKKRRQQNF
PIM1 (human), sequence (P11309 whole entry, looked up): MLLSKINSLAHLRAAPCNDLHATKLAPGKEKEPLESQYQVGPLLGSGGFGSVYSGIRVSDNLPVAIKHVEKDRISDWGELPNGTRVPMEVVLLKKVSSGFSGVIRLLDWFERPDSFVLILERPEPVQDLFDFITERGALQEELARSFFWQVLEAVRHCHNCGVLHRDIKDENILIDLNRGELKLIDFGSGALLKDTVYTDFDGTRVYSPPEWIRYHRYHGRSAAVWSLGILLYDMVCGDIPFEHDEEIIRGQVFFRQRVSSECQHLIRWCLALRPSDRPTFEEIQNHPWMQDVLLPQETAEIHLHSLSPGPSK

residual activity ([1]; compound 1.0 µM): 89%
residual activity ([1]; compound 10.0 µM): 91%
residual activity ([2]; compound 1.0 µM): 93%
residual activity ([2]; compound 10.0 µM): 100%
residual activity ([3]; compound 1.0 µM): 55%
residual activity ([3]; compound 10.0 µM): 23%
residual activity ([4]; compound 1.0 µM): 86%
residual activity ([4]; compound 10.0 µM): 82%
residual activity ([5]; compound 1.0 µM): 100%
residual activity ([5]; compound 10.0 µM): 101%
residual activity ([6]; compound 1.0 µM): 71%
residual activity ([6]; compound 10.0 µM): 75%
residual activity ([7]; compound 1.0 µM): 76%
residual activity ([7]; compound 10.0 µM): 98%
residual activity ([8]; compound 1.0 µM): 94%
residual activity ([8]; compound 10.0 µM): 65%
residual activity ([9]; compound 1.0 µM): 91%
residual activity ([9]; compound 10.0 µM): 85%
residual activity ([10]; compound 1.0 µM): 77%
residual activity ([10]; compound 10.0 µM): 71%
residual activity ([11]; compound 1.0 µM): 108%
residual activity ([11]; compound 10.0 µM): 105%
residual activity ([12]; compound 1.0 µM): 90%
residual activity ([12]; compound 10.0 µM): 101%
residual activity ([13]; compound 1.0 µM): 84%
residual activity ([13]; compound 10.0 µM): 97%
residual activity ([14]; compound 1.0 µM): 98%
residual activity ([14]; compound 10.0 µM): 101%
residual activity ([15]; compound 1.0 µM): 102%
residual activity ([15]; compound 10.0 µM): 112%
residual activity [16]: 77%
residual activity ([17]; compound 1.0 µM): 106%
residual activity ([17]; compound 10.0 µM): 95%
residual activity ([18]; compound 1.0 µM): 89%
residual activity ([18]; compound 10.0 µM): 89%
residual activity ([19]; compound 1.0 µM): 98%
residual activity ([19]; compound 10.0 µM): 86%
residual activity ([20]; compound 1.0 µM): 102%
residual activity ([20]; compound 10.0 µM): 103%
residual activity ([21]; compound 1.0 µM): 108%
residual activity ([21]; compound 10.0 µM): 103%
residual activity ([22]; compound 1.0 µM): 80%
residual activity ([22]; compound 10.0 µM): 96%
residual activity ([23]; compound 1.0 µM): 94%
residual activity ([23]; compound 10.0 µM): 103%
residual activity ([24]; compound 1.0 µM): 84%
residual activity ([24]; compound 10.0 µM): 92%
residual activity ([25]; compound 1.0 µM): 91%
residual activity ([25]; compound 10.0 µM): 93%
residual activity ([26]; compound 1.0 µM): 102%
residual activity ([26]; compound 10.0 µM): 71%
residual activity ([27]; compound 1.0 µM): 71%
residual activity ([27]; compound 10.0 µM): 111%
residual activity ([28]; compound 1.0 µM): 94%
residual activity ([28]; compound 10.0 µM): 90%
residual activity ([29]; compound 1.0 µM): 88%
residual activity ([29]; compound 10.0 µM): 92%
residual activity ([30]; compound 1.0 µM): 111%
residual activity ([30]; compound 10.0 µM): 120%
residual activity ([31]; compound 1.0 µM): 102%
residual activity ([31]; compound 10.0 µM): 86%
residual activity ([32]; compound 1.0 µM): 97%
residual activity ([32]; compound 10.0 µM): 98%
residual activity ([33]; compound 1.0 µM): 109%
residual activity ([33]; compound 10.0 µM): 106%
residual activity ([34]; compound 1.0 µM): 90%
residual activity ([34]; compound 10.0 µM): 67%
residual activity ([35]; compound 1.0 µM): 104%
residual activity ([35]; compound 10.0 µM): 102%
Compound: O=C(NOCC(O)CO)c1ccc(F)c(F)c1Nc1ccc(I)cc1Cl (stereo not drawn)

residual activity ([1]; compound 1.0 µM): 100%
residual activity ([1]; compound 10.0 µM): 108%
residual activity ([2]; compound 1.0 µM): 86%
residual activity ([2]; compound 10.0 µM): 87%
residual activity ([3]; compound 1.0 µM): 83%
residual activity ([3]; compound 10.0 µM): 81%
residual activity ([4]; compound 10.0 µM): 106%
residual activity ([5]; compound 1.0 µM): 90%
residual activity ([5]; compound 10.0 µM): 94%
residual activity ([6]; compound 1.0 µM): 102%
residual activity ([6]; compound 10.0 µM): 101%
residual activity ([7]; compound 1.0 µM): 106%
residual activity ([7]; compound 10.0 µM): 106%
residual activity ([8]; compound 1.0 µM): 101%
residual activity ([8]; compound 10.0 µM): 103%
residual activity ([9]; compound 1.0 µM): 107%
residual activity ([9]; compound 10.0 µM): 99%
residual activity ([10]; compound 1.0 µM): 98%
residual activity ([10]; compound 10.0 µM): 100%
residual activity ([11]; compound 1.0 µM): 98%
residual activity ([11]; compound 10.0 µM): 105%
residual activity [36]: 109%
residual activity ([13]; compound 1.0 µM): 109%
residual activity ([13]; compound 10.0 µM): 123%
residual activity ([14]; compound 1.0 µM): 84%
residual activity ([14]; compound 10.0 µM): 94%
residual activity ([15]; compound 1.0 µM): 102%
residual activity ([15]; compound 10.0 µM): 101%
residual activity [16]: 114%
residual activity ([17]; compound 1.0 µM): 116%
residual activity ([17]; compound 10.0 µM): 111%
residual activity ([18]; compound 10.0 µM): 92%
residual activity ([19]; compound 1.0 µM): 91%
residual activity ([19]; compound 10.0 µM): 99%
residual activity ([20]; compound 1.0 µM): 119%
residual activity ([20]; compound 10.0 µM): 99%
residual activity ([21]; compound 1.0 µM): 92%
residual activity ([21]; compound 10.0 µM): 84%
residual activity ([22]; compound 1.0 µM): 109%
residual activity ([22]; compound 10.0 µM): 108%
residual activity ([23]; compound 1.0 µM): 101%
residual activity ([23]; compound 10.0 µM): 84%
residual activity ([24]; compound 1.0 µM): 94%
residual activity ([24]; compound 10.0 µM): 82%
residual activity ([25]; compound 1.0 µM): 98%
residual activity ([26]; compound 1.0 µM): 93%
residual activity ([26]; compound 10.0 µM): 87%
residual activity ([27]; compound 1.0 µM): 91%
residual activity ([28]; compound 1.0 µM): 101%
residual activity ([28]; compound 10.0 µM): 103%
residual activity ([29]; compound 1.0 µM): 100%
residual activity ([29]; compound 10.0 µM): 102%
residual activity ([30]; compound 1.0 µM): 98%
residual activity ([30]; compound 10.0 µM): 92%
residual activity ([31]; compound 1.0 µM): 86%
residual activity ([31]; compound 10.0 µM): 77%
residual activity ([32]; compound 1.0 µM): 95%
residual activity ([32]; compound 10.0 µM): 104%
residual activity ([33]; compound 1.0 µM): 94%
residual activity ([33]; compound 10.0 µM): 90%
residual activity ([34]; compound 1.0 µM): 93%
residual activity ([34]; compound 10.0 µM): 100%
residual activity ([35]; compound 1.0 µM): 79%
residual activity ([35]; compound 10.0 µM): 92%
Compound: Nc1cccc2c1CN(C1CCC(=O)NC1=O)C2=O (stereo not drawn)

From the kinase profiling compilation of Christmann-Franck et al. (2016)
